Data from patent US20220143003A1, “COMPOSITIONS AND METHODS TO TREAT NON-ALCOHOLIC FATTY LIVER DISEASES (NAFLD)” (Coherus Biosciences, Inc., priority 2018, published 2022).

Key:
Format in all cases: in vivo, male C57BL/6JRj mice
[1] = tested on: DIO-NASH mice; assay: Intraperitoneal insulin tolerance test (IPITT), week 10; design: Area under the curve 0-180 min IPITT (blood glucose): unit not given here; conditions: for Area under the curve 0-180 min IPITT (blood glucose): week 10, 6 h fasted, i.p. insulin 0.5 U/kg, group mean
Procedure: (§1) Mice were fasted 6 hours prior to intraperitoneal insulin administration (0.5 Unit/kg, rapid acting insulin NovoRapid). At the various time points after insulin administration, blood samples were collected into heparinized glass capillary tubes and immediately suspended in glucose/lactate system solution buffer (EKF-diagnostics, Germany). Blood glucose (BG) was measured using a BIOSEN c-Line glucose meter (EKF-diagnostics, Germany) according to the manufacturer's instructions. After the last blood sample, the animals were returned to the normal feeding schedule. The order of the animals was randomized before the procedure and mice were dosed with compounds just after the −60 minutes blood sample.
Intraperitoneal insulin tolerance test (IPITT) in week 10. Left: Temporal course of blood glucose levels during 6 h fasted IPITT. Intraperitoneal insulin bolus (0.5 U/kg) at t=0 min.
Area under the curve calculated from the temporal course from 0-180 min PITT Values expressed as mean of n=12-14+SEM.

[2] = tested on: DIO-NASH mice; assay: Plasma triglycerides (TG) at termination; conditions: group mean
Procedure: (§2) For plasma biochemistry, tail blood was drawn directly through the capillary of a Microvette/Vacuette of the right dimension and anticoagulant and mixed by inversion 5 times. Blood was placed at 4° C. until centrifugation at 3000×g for 10 minutes at 4° C. The plasma supernatants were transferred to new tubes and immediately frozen on dry ice and stored at −80° C. until analysis.
(§3) Mouse insulin was measured in single determinations using the MSD platform (Meso Scale Diagnostics).
Plasma triglycerides (TG) at termination (mmol/L). Values expressed as mean of n=12-14+SEM.

[3] = tested on: DIO-NASH mice; assay: Liver hydroxyproline (HP) at termination, colorimetric assay; conditions: for Relative liver hydroxyproline (HP) at termination / Total liver hydroxyproline (HP) at termination: group mean
Procedure: The liver post-biopsy for histological analyses was removed by dissection from the left lateral lobe, fixated in 4% formalin for 20-24 h, and subsequently embedded in paraffin. Liver biopsies for liver triglycerides and total cholesterol were dissected from the medial lobe, snap frozen in liquid nitrogen, and stored at −80° C., while liver biopsies for hydroxyproline were dissected from the caudal lobe (the entire lobe), snap frozen in liquid nitrogen and stored at −80° C. Finally, a liver sample for RNA isolation and gene expression analysis was dissected from the left lateral lobe, snap frozen in liquid nitrogen, and stored at −80° C. until processing.
For liver hydroxyproline (HP; a protein marker of fibrosis) quantification, liver samples were homogenized in 6 M HCl and hydrolyzed to degrade collagen. The samples were centrifuged, and the hydroxyproline content measured in duplicates in the supernatant, using a colorimetric assay (Quickzyme Biosciences) according to the manufacturer's instructions.
Relative liver hydroxyproline (HP) (μg/mg of liver) at termination. Values expressed as mean of n=12-14+SEM.
Total liver hydroxyproline (HP) (μg/liver) at termination. Values expressed as mean of n=12-14+SEM.

[4] = tested on: DIO-NASH mice; assay: Liver Galectin-3 IHC quantified by morphometry; conditions: at termination, mean of n=12-14; for Total terminal liver Galectin-3 (Average): % fractional area multiplied with liver weight; for Relative terminal liver Galectin-3 (Average): morphometry
Procedure: (§4) Protein markers of fibrosis (Col1a1), fibrogenesis (α-SMA) and inflammation (Gal-3) were assessed by immunohistochemistry. α-SMA and collagen type I increase in regulation of quiescent hepatic stellate cell activation into myofibroblast-like cells where activated hepatic stellate cells are the main collagen producing cells in the liver (Carpino et al 2005, Hou and Syn 2018) whereas Gal-3 is involved in mediating inflammatory response and considered as a macrophage activation marker (Sciacchitano et al, 2018). For morphometric quantification of liver Col1a1 (using antibody from Southern Biotech, Cat. #1310-01), alpha-smooth muscle actin (α-SMA; using antibody from Abcam, Cat. #Ab124964) and Galectin-3 (using antibody from Biolegend, Cat. #125402), IHC staining was performed using standard procedures. Briefly, after antigen retrieval and blocking of endogenous peroxidase activity, slides were incubated with primary antibody. For all IHC stains, the primary antibody was detected using a polymeric HRP-linker antibody conjugate and visualized using DAB as chromogen. Finally, sections were counterstained in hematoxylin and cover-slipped before scanning.
(§5) Quantitative assessment of immunoreactivity is evaluated as follows. IHC-positive staining is quantified by image analysis using the Visiomorph software (Visiopharm, Denmark). Visiomorph protocols are designed to analyze the virtual slides in two steps: 1. Crude detection of tissue at low magnification (1× objective). The liver capsule is excluded. 2. Detection of IHC-positive staining (e.g. green; collagen 1 IHC), tissue (e.g. red) and fat (e.g. pink) at high magnification (10×objective). The quantitative estimate of IHC-positive staining is calculated as an area fraction (AF) according to the following formula:
Terminal liver Galectin-3 was quantified by morphometry. Relative terminal liver Galectin-3 (% fractional area) is expressed as mean of n=12-14+SEM.
Total terminal Galectin-3 values are in milligrams (% fractional area multiplied with liver weight) and expressed as mean of n=12-14+SEM.

[5] = tested on: DIO-NASH mice; assay: Plasma alanine transaminase (ALT) at termination; conditions: for Plasma alanine transaminase (ALT) at termination: group mean
Procedure: as §2, §3
Plasma alanine transaminase (ALT) at termination (U/L). Values expressed as mean of n=11-14+SEM.

[6] = tested on: DIO-NASH mice; assay: Liver α-SMA IHC quantified by morphometry; conditions: for Relative terminal liver α-SMA by morphometry / Total terminal α-SMA (% fractional area multiplied with liver weight): group mean
Procedure: as §4, §5
Terminal liver α-SMA was quantified by morphometry. Relative terminal liver α-SMA (% fractional area) is expressed as mean of n=12-14+SEM.
Total terminal α-SMA values are in milligrams (% fractional area multiplied with liver weight) and expressed as mean of n=12-14+SEM.

[7] = tested on: DIO-NASH mice; assay: Oral glucose tolerance test (OGTT), week 7; conditions: 6 h fasted, oral glucose 2 g/kg, group mean
Procedure: as §1, with “Animals were” for “Mice were”, “to oral glucose” for “to intraperitoneal insulin”, “administration (2 g/kg).” for “administration (0.5 Unit/kg, rapid acting insulin NovoRapid).”, “after glucose” for “after insulin”, “animals were” for “animals was”
Oral glucose tolerance test (OGTT) in week 7. Temporal course of blood glucose levels during 6 h fasted OGTT. Oral glucose bolus (2 g/kg) at t=0 min.
Area under the curve calculated from the temporal course from 0-180 min OGTT. Values expressed as mean of n=12-14+SEM.

[8] = DIO-NASH mice, 12 weeks of treatment, summary of data
[9] = CHS-131 High dose (alone or combined)

O=S(=O)(Nc1cc(Cl)c(Oc2cnc3ccccc3c2)c(Cl)c1)c1ccc(Cl)cc1Cl [CHS-131]
Insulin sensitization, effect in words [1, 8]: significant improvement | Decrease of insulin resistance ([1]; DIO-NASH mice, compared to DIO mice administered vehicle only, significant, not in a dose response manner): 15% | Area under the curve 0-180 min IPITT (blood glucose) [1, 9]: 767 | Area under the curve 0-180 min IPITT (blood glucose) ([1]; CHS-131 Low dose): 758 | Plasma triglycerides (TG) at termination [2, 9]: 0.651 mmol/L | Plasma triglycerides (TG) at termination ([2]; CHS-131 Low dose): 0.715 mmol/L | Marker of fibrosis hydroxyproline, effect in words [3, 8]: positive trends for improvement | Improvement of liver hydroxyproline level at termination (marker of fibrosis) ([3]; DIO-NASH mice, compared to DIO mice administered vehicle only, significant): 30% | Relative liver hydroxyproline (HP) at termination [3, 9]: 0.0802 μg/mg of liver | Total liver hydroxyproline (HP) at termination [3, 9]: 250 μg/liver | Relative liver hydroxyproline (HP) at termination ([3]; CHS-131 Low dose): 0.0631 μg/mg of liver | Total liver hydroxyproline (HP) at termination ([3]; CHS-131 Low dose): 205 μg/liver | Total terminal liver Galectin-3 (Average) ([4]; CHS-131 High dose + Vehicle): 90.6 milligrams | Relative terminal liver Galectin-3 (Average) ([4]; CHS-131 High dose + Vehicle): 2.79 % fractional area | Total terminal liver Galectin-3 (Average) ([4]; CHS-131 Low dose + Vehicle): 93.8 milligrams | Relative terminal liver Galectin-3 (Average) ([4]; CHS-131 Low dose + Vehicle): 2.95 % fractional area | Plasma ALT, effect in words [5, 8]: reduced | Decrease of plasma alanine aminotransferase (ALT) ([5]; DIO-NASH mice, compared to DIO mice administered vehicle only (placebo)): 30% | Plasma alanine transaminase (ALT) at termination [5, 9]: 140 U/L | Plasma alanine transaminase (ALT) at termination ([5]; CHS-131 Low dose): 163 U/L | Marker of fibrosis α-SMA, effect in words [6, 8]: positive trends for improvement | Decrease of terminal α-SMA (marker of fibrosis) ([6]; DIO-NASH mice, compared to vehicle alone, trend): 15% | Relative terminal liver α-SMA by morphometry [6, 9]: 3.07 % fractional area | Total terminal α-SMA (% fractional area multiplied with liver weight) [6, 9]: 102 milligrams | Relative terminal liver α-SMA by morphometry ([6]; CHS-131 Low dose): 3.49 % fractional area | Total terminal α-SMA (% fractional area multiplied with liver weight) ([6]; CHS-131 Low dose): 110 milligrams | Area under the curve 0-180 min OGTT (blood glucose) [7, 9]: 1.66e+03 | Area under the curve 0-180 min OGTT (blood glucose) ([7]; CHS-131 Low dose): 1.53e+03

CSc1ccc(C(=O)/C=C/c2cc(C)c(OC(C)(C)C(=O)O)c(C)c2)cc1 [Elafibranor, reference compound]
Area under the curve 0-180 min IPITT (blood glucose) [1, 9]: 757 | Plasma triglycerides (TG) at termination [2, 9]: 0.525 mmol/L | Relative liver hydroxyproline (HP) at termination [3, 9]: 0.0389 μg/mg of liver | Total liver hydroxyproline (HP) at termination [3, 9]: 164 μg/liver | Total terminal liver Galectin-3 (Average) [4]: 104 milligrams | Relative terminal liver Galectin-3 (Average) [4]: 2.43 % fractional area | Plasma alanine transaminase (ALT) at termination [5, 9]: 144 U/L | Relative terminal liver α-SMA by morphometry [6, 9]: 2.56 % fractional area | Total terminal α-SMA (% fractional area multiplied with liver weight) [6, 9]: 114 milligrams | Area under the curve 0-180 min OGTT (blood glucose) [7, 9]: 1.35e+03

OC[C@H]1O[C@@H](c2ccc(Cl)c(Cc3ccc(O[C@H]4CCOC4)cc3)c2)[C@H](O)[C@@H](O)[C@@H]1O [Empagliflozin, reference compound]
Area under the curve 0-180 min IPITT (blood glucose) [1, 9]: 723 | Plasma triglycerides (TG) at termination [2, 9]: 0.738 mmol/L | Relative liver hydroxyproline (HP) at termination [3, 9]: 0.0747 μg/mg of liver | Total liver hydroxyproline (HP) at termination [3, 9]: 233 μg/liver | Total terminal liver Galectin-3 (Average) [4]: 99.9 milligrams | Relative terminal liver Galectin-3 (Average) [4]: 2.9 % fractional area | Plasma alanine transaminase (ALT) at termination [5, 9]: 216 U/L | Markers of fibrosis, effect in words ([6]; DIO-NASH mice, 12 weeks of treatment, summary of data, markers not given): significant reduction | Relative terminal liver α-SMA by morphometry [6, 9]: 3.8 % fractional area | Total terminal α-SMA (% fractional area multiplied with liver weight) [6, 9]: 130 milligrams | Area under the curve 0-180 min OGTT (blood glucose) [7, 9]: 1.31e+03
